Results as given in PubChem BioAssay (NCI).
Values joined by “and” are separate entries in the source; they are usually repeats but may differ in a detail not shown here. Equal entries are not always repeated.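 Results reflect a 48-hour exposure of cells in 96-well plates to compound at five concentrations. The concentration for 50% growth inhibition is given as GI50. TGI is the concentration that stops growth completely.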

Key:
Assay in all cases: inhibition of tumour cell growth, NCI panel, 48 h
786-0 renal = system: 786-0 renal
BT-549 breast = system: BT-549 breast
CAKI-1 renal = system: CAKI-1 renal
DU-145 prostate = system: DU-145 prostate
HCT-116 colon = system: HCT-116 colon
MALME-3M melanoma = system: MALME-3M melanoma
NCI-H226 lung = system: NCI-H226 lung
NCI/ADR-RES ovarian = system: NCI/ADR-RES ovarian
SF-295 CNS = system: SF-295 CNS
HL-60(TB) leukemia = system: HL-60(TB) leukemia

SMILES	TGI (786-0 renal)	TGI (BT-549 breast)	GI50 (CAKI-1 renal)	TGI (CAKI-1 renal)	TGI (DU-145 prostate)	TGI (HCT-116 colon)	TGI (MALME-3M melanoma)	TGI (NCI-H226 lung)	TGI (NCI/ADR-RES ovarian)	TGI (SF-295 CNS)	GI50 (786-0 renal) [µM]	GI50 (BT-549 breast) [µM]	GI50 (DU-145 prostate) [µM]	GI50 (HCT-116 colon) [µM]	GI50 (HL-60(TB) leukemia) [µM]	TGI (HL-60(TB) leukemia) [µM]	GI50 (MALME-3M melanoma) [µM]	GI50 (NCI/ADR-RES ovarian) [µM]	GI50 (SF-295 CNS) [µM]	GI50 (NCI-H226 lung) [µM]
CCCCCCC(C)CC(CCCCCC)NCCOC(=O)c1ccc([N+](=O)[O-])cc1 (stereo not drawn)	33.7 µM and 33.5 µM	31.6 µM and 30.5 µM	12.2 µM and 4.21 µM	25.3 µM and 18.4 µM	30.1 µM and 25.6 µM	28.1 µM and 24.1 µM	28 µM and 25.7 µM	29.4 µM and 28.6 µM	58.8 µM and 32.1 µM	25.3 µM and 31.3 µM										
COc1ccc(-c2ccc(/C=N/n3cn[nH]c3=S)o2)c([N+](=O)[O-])c1	> 100 µM	> 100 µM	32.6 µM	> 100 µM	> 100 µM	94.4 µM	> 100 µM		94 µM	> 100 µM	66.2	30.1	80.5	29.6	14.5	33.7	23.8	30.5	36	
CC1(C)CCSC(/C=C/c2ccccc2)=N1	25.6 µM	22 µM		32.3 µM	> 100 µM	26.7 µM	25.6 µM		38.2 µM	40.7 µM						> 100				
CCOC(=O)C1CCC/C1=N\N=C(N)N (stereo not drawn) (tested in a mixture with another compound)	> 100 µM	> 100 µM			> 100 µM	> 100 µM	> 100 µM	> 100 µM	> 100 µM	> 100 µM						> 100				
N#C/C(=C\c1cn(-c2ccccc2)c2ccccc12)C(=O)O	> 100 µM	> 100 µM	63.1 µM	> 100 µM	> 100 µM	> 100 µM	> 100 µM		> 100 µM	> 100 µM	61.2	36.6	44.2	34.7			> 100	57.7	28.1	
O=C(CC(=O)Nc1ccc(Cl)cc1)NNCC(=O)Nc1nc(-c2ccccc2)cs1	> 100 µM					> 100 µM		> 100 µM		> 100 µM						> 100				
CC1C(=O)N=C2C(=CN(Cc3ccccc3)c3ccccc32)C(=O)N1C (stereo not drawn)	> 100 µM	> 100 µM		> 100 µM	> 100 µM	> 100 µM	> 100 µM	> 100 µM	> 100 µM											
CC1CCC2(OC1)OC1CC3C4CC=C5CC(OC6OC(CO)C(OC7OC(C)C(OC8OC(C)C(O)C(O)C8O)C(O)C7O)C(O)C6OC6OC(C)C(O)C(O)C6O)CCC5(C)C4CCC3(C)C1C2C (stereo not drawn)	2.29 µM	3.07 µM		2.55 µM	2.54 µM	1.92 µM	1.5 µM	2.86 µM		1.59 µM										
CCCCCCN1C(=O)/C(=c2\sc3n(c2=O)C2C(NN=3)N(CC)C(=O)N2CC)c2ccccc21 (stereo not drawn)	> 50 µM	> 50 µM	1.82 µM	> 50 µM	> 50 µM					> 50 µM	1.6	6.34	2.52		1.96	43.9			1.45	
O=C(CNC(=O)c1cccc2ccccc12)Nc1ccccc1Oc1cccc(O)c1	> 25 µM	> 25 µM			> 25 µM	> 25 µM	> 25 µM	> 25 µM	> 25 µM	> 25 µM	9.93	> 25	9.47	1.36	1.31	10.6	5.88	7.94	2.2	> 25
CCNC(=O)C(O)C1(O)CCC2[C@@H]3CCC4=CC(=O)C=C[C@]4(C)C3[C@@H](O)C[C@@]21C (stereo partly drawn)	> 100 µM			> 100 µM		> 100 µM	> 100 µM	> 100 µM		> 100 µM						> 79.4				
COc1ccc2[nH]c3c(cnn4cnnc34)c2c1	> 100 µM			> 100 µM			> 100 µM			> 100 µM						> 100				
Cc1ccc2sc3cc(=O)cc(C)c-3nc2c1	> 100 µM			93.1 µM		> 100 µM		> 100 µM		> 100 µM						66				
O=C1CCC(c2nc3ccccc3o2)C(=O)N1 (stereo not drawn)	> 100 µM			> 100 µM		> 100 µM	> 100 µM	> 100 µM		> 100 µM						> 100				
CCCCCCn1c(-c2ccc(C(=O)O/N=C(\N)c3ccc(OC)cc3)cc2)nc(-c2ccccc2)c1-c1ccccc1	0.833 µM		0.997 µM	2.19 µM	2.22 µM	2.89 µM	3.55 µM		3.41 µM	3.07 µM	0.276		1.02	1.4			1.75	1.18	1.61	
O=C(O)CC(Cc1ccc2c(c1)OCO2)C(=O)O (stereo not drawn)	> 100 µM	> 100 µM			> 100 µM	> 100 µM	> 100 µM	> 100 µM	> 100 µM	> 100 µM						> 100				
COc1ccc(Cl)cc1N1C(=O)C(Cl)=C(Nc2cccc(O)c2)C1=O	60.2 µM	46.2 µM	19.2 µM	55.2 µM	> 100 µM	24.9 µM	50.4 µM		95.4 µM	82.9 µM	21.1	11.8	21.8	11.8			14.5	27.2	17.1	
COc1n[n+]([O-])c(C)cc1[N+](=O)[O-]	21.7 µM	33.2 µM	4.84 µM	19.1 µM	29.3 µM	23.9 µM	9.85 µM	63.3 µM	43.7 µM	28.5 µM	8.4	18.9	15.7	10.2			3.04	19.1	11.3	24.4
COC(=O)c1nc(-c2ccc(Cl)c(Cl)c2)nc2ccccc12	47.8 µM			> 100 µM		> 100 µM	> 100 µM	78.1 µM		> 31.1 µM						> 100				
Cc1cc2c(cn1)C(=O)OCC2	> 100 µM					> 100 µM	> 100 µM	> 100 µM		> 100 µM						> 100				
